Experimental data published in patent US20230172837A1, “AGENT FOR PREVENTING AND/OR IMPROVING PHOTOAGING AND/OR DERMAL PIGMENTATION, COSMETIC METHOD USING SAME, AND COSMETIC DEVICE TO BE APPLIED IN SAID METHOD” (SHISEIDO COMPANY, LTD., priority 2020, published 2023).

Test system: M0 macrophages differentiated from THP-1
Test: Intracellular activity of M0 macrophages, flux analyzer (OCR)
Type: cell-based, human
Conditions: M0, 3 ppm, 48 hours, versus solvent (DMSO) alone
Method: M0 macrophages, M1 macrophages and M2 macrophages induced to differentiate from THP-1 by the same method as Experiment 2 were measured for intracellular activity using an XFe24 (24-well) extracellular flux analyzer by Agilent Technologies (previously Seahorse Bioscience) (hereunder referred to as “flux analyzer”), with reference to Nat Immunol, 2014. 15(9): pp 846-855 (NPL 14). A flux analyzer is a device that allows non-invasive, highly sensitive periodic measurement of cells to determine the state of glycolysis as the main cellular energy metabolism pathway, and aerobic respiration by mitochondria.
Using a flux analyzer, oligomycin (ATP synthase inhibitor) (“Oligo”), FCCP (uncoupling agent) and rotenone (mitochondrial complex I inhibitor)+antimycin A (mitochondria complex III inhibitor) (“Rot+Ant”) were added at predetermined times and the oxygen consumption rate (OCR) and extracellular acidification rate (ECAR) were measured. The ECAR and OCR values used were the basal OCR and basal ECAR values at 18.3 minutes after measurement. Each measured value was calibrated by the number of cells determined by counting the cell nuclei stained by addition of Hoechst.
M0, M1 and M2 differentiated from THP-1 were prepared by the same method as Experiment 2, and hakushinin extract (hakushinin hydrolysate) prepared by the same method as Experiment 13 was added to the M0 (at 0.3 ppm, 1 ppm or 3 ppm). At 48 hours after incubation, the oxygen consumption rate (OCR) was measured using a flux analyzer. Each measured value was calibrated by the number of cells determined by counting the cell nuclei stained by addition of Hoechst (FIG. 21).
M0 and M2 differentiated from THP-1 were prepared by the same method as Experiment 2, linoleic acid, linolenic acid or juniperonic acid (3 ppm) was added to M0, and after 48 hours the oxygen consumption rate (OCR) was measured with a flux analyzer by the same method as Experiment 15. Each measured value was calibrated by the number of cells determined by counting the cell nuclei stained by addition of Hoechst.
The Basal OCR and mitochondrial respiration values for M0 were examined with the incubation time changed to 24 hours after addition of the hakushinin extract or unsaturated fatty acid. The experiment method was carried out by the same method as described in Experiment 17, except that the incubation time was changed to 24 hours after addition of the hakushinin extract or unsaturated fatty acid.

Compound | Basal OCR | mitochondrial respiration
CC/C=C\C/C=C\C/C=C\CCCC/C=C\CCCC(=O)O [juniperonic acid] | not significantly different | not significantly different
CCCCC/C=C\C/C=C\CCCCCCCC(=O)O [linoleic acid] | not significantly different | not significantly different
